Consider 17 compounds from patent publication US9718825B2, “N-(4-(azaindazol-6-yl)-phenyl)-sulfonamides and their use as pharmaceuticals” (priority 2013, dated 2017).

Like-named read-outs stand apart in the source and are kept apart here.

Test [1] concerns SGK-1 dependent activation of ENaC-currents in A6 cell monolayers. As to the kind of experiment: Functional electrophysiological assay (Ussing chamber): SGK-1 dependent activation of ENaC-currents in A6 cell monolayers. The format is cell-based, Xenopus laevis. The conditions noted are these: hypoosmotic shock 45 min, amiloride-sensitive ΔI'sc, read-out: IC50 values for inhibition of SGK-1 dependent activation of ENaC-currents in A6 cell monolayers. The protocol: C) Functional Electrophysiological Assay for Determination of SGK-1 Dependent Activation of ENaC-Currents in A6 Cell Monolayers
Cells were grown in cell culture flasks (Nunc) at 28° C. in a humidified atmosphere with 4% CO2. The culture medium contained a 7:3 mixture of Leibovitz's L-15 (Sigma-Aldrich)/Coon's (Sigma-Aldrich) media supplemented with 10% fetal bovine serum (PAA), 20% sterile water, 25 mM NaHCO3 (Sigma-Aldrich), 100 U/ml penicillin (PAA) and 100 μg/ml streptomycin (PAA). The osmolality of the medium was 270 mOsml/kg H2O). Cells were detached with accutase (PAA) and seeded for electrophysiological measurements into transwell filter inserts (polyester 0.4 μm pore size, Corning) at a density of 0.4×10^6 cells/filter. Cells were cultivated for 7-10 days, and confluent A6 cell monolayers were identified by repetitive resistance measurements in cell culture medium using an EVOM^2 ohmmeter (World Precision Instruments). Monolayers with a resistance of >10 kOhm were considered confluent. Filters with confluent A6 cells were transferred into a continuously perfused Ussing-chamber, and electrophysiological parameters were measured under open circuit conditions using a transepithelial clamp amplifier (EP Design). Short circuit current (I′sc) was calculated by Ohm's law. […] The pH was adjusted to 8.2. All measurements were done at room temperature.
To evaluate the effects of SGK inhibitors on ENaC-mediated transepithelial currents, A6 monolayers were first equilibrated for 5 min with isoosmotic Ringer solution from both the luminal and basolateral side of the cell layer. Amiloride was applied to the luminal site to establish the basal ENaC-dependent current (I′scbasal). Cell layers were then perfused from the basolateral side for 10 min with compounds in isotonic buffer or control isotonic buffer. SGK signaling leading to increased ENaC activity and subsequent increase in I′sc was stimulated by application of hypoosmotic Ringer-solution for 45 min to both sides of the A6 cell layer. ENaC-dependent I′sc after the hypoosmotic shock (I′schypo) was determined by application of amiloride at the end of the experiment. Total changes of amiloride-sensitive Isc was calculated as ΔI′sc=I′schypo−I′scbasal. […] The inhibition of ΔI′sc by the test compounds was determined relative to the ΔI′sc measured with control monolayers which were not treated with the test compound.

Test [2] relates to collagen type X (Col10a1) expression in mouse chondrogenic ATDC5 cells. As to the kind of experiment: Chondrocyte hypertrophic differentiation in mouse chondrogenic ATDC5 cells (collagen type X expression). The format is cell-based. The conditions noted are these: Col10a1 expression by quantitative real-time PCR after two weeks of cell culture, read-out: IC50 values for the inhibition of collagen type X expression in mouse chondrogenic ATDC5 cells. An excerpt:
D) Determination of the effect on chondrocyte hypertrophic differentiation in mouse chondrogenic ATDC5 cells
The ATDC5 cell assay was used as in vitro model to determine the effects of the compounds of the invention on chondrocyte hypertrophic differentiation by monitoring the expression levels of collagen type X (Col10a1) as specific marker of chondrocyte hypertrophy.
Background: ATDC5 cells are a clonal mouse embryonic cell line derived from multipotent AT805 teratocarcinoma cells (Atsumi, T. et al., A chondrogenic cell line derived from a differentiating culture of AT805 teratocarcinoma cells, Cell Differ. Dev. 1990, 30, 109-116). The cells can undergo insulin-dependent chondrogenic cell differentiation entailing distinct differentiation stages starting from an undifferentiated, subconfluent stage, a condensation stage, a cartilage nodule formation stage and a calcification stage within 45 days of in vitro culture. Chondrogenic differentiation can be shown by measuring the expression of the cartilage main collagen (Col2a1) and aggrecan (AGC1) and glycosaminoglycan-staining with Alcian Blue within two weeks after insulin-triggered differentiation, and hypertrophic differentiation can be monitored by the expression of collagen type X (Col10a1), a specific marker of chondrocyte hypertrophy within 21 days of in vitro culture. (Shukunami, C. et al., Chondrogenic Differentiation of Clonal Mouse Embryonic Cell Lne ATDC5 In Vitro: Differentiation-dependent Gene Expression of Parathyroid Hormone (PTH)/PTH-related Peptide Receptor, J. Cell Biol. 1996, 133, 457-468). Growth factor BMP-2 is known to stimulate cell differentiation and can stimulate early and late-phase ATDC5 differentiation (Shukunami, C. et al., Sequential Progression of the Differentiation Program by Bone Morphogenetic Protein-2 in Chondrogenic Cell Line ATDC5, Exp. Cell Res. 1998, 241, 1-11). Thyroid hormone triiodothyronine (T3) promotes hypertrophic differentiation of growth plate chondrocytes (Robson, H. et al., Thyroid Hormone Acts Directly on Growth Plate Chondrocytes to Promote Hypertrophic Differentiation and Inhibit Clonal Expansion and Cell Proliferation, Endocrinology 2000, 141, 3887-3897). Addition of BMP2 and T3 can accelerate ATDC5 hypertrophic differentiation leading to the strong induction Col10a1 expression between 10-14 days. SGK-inhibitors were added to differentiating ATDC5 cells for 14 days and Col10a1 gene expression was quantified to determine effects on chondrocyte hypertrophic differentiation.
Cell assay description: ATDC5 cells were maintained in 300 cm^2 tissue culture flasks in DMEM/Ham's F12+5% FCS supplemented with 10 μg/ml human transferrin, 30 nM sodium selenite, 50 μg/ml kanamycin and grown at 37° C. in 5% CO2 in 95% air. To initiate cell differentiation, 9.9×10^4 cells were plated in 24 well plates and grown for 2 days. Medium was exchanged with DMEM/Ham's F12+5% FCS supplemented with 10 μg/ml human transferrin, 30 nM sodium selenite, 50 μg/ml ascorbic acid and 1 μg/ml BMP2. The assay was run in triplicates, compounds were added in […], and medium changed every 2-3 days including supplementation of compound. At day 7 after initiation of cell differentiation, 1 μM T3 was used as additional supplement in the cell culture.
After two weeks of cell culture, RNA was isolated and converted to cDNA for determination of gene expression by quantitative real-time PCR. Cells were lysed in 600 μl of RLT-buffer (Qiagen) and total RNA was isolated using the RNA-easy Mini RNA isolation Kit (Qiagen) which was run on a Qiacube system (Qiagen) according to the supplier's instructions. RNA was isolated in 30 μl of pure water and the RNA content measured by UV-spectroscopy (Nanodrop, Peqlab). For cDNA synthesis 50 ng total RNA was reverse transcribed using the High Capacity cDNA Reverse Transcription Kit (Applied Biosystems, Product Number 4368813) according to the manufacturer's instructions. […]
A general note: Real-time PCR tracks product formation cycle by cycle.

In test [3] the test system is SGK-1 dependent phosphorylation of GSK3beta in U2OS cells. Briefly: SGK-1 dependent phosphorylation of GSK3beta in U2OS cells overexpressing recombinant SGK-1 and GSK3beta. The format is cell-based, human. The note with it: U2OS cells, 6 h incubation, ratio of phosphorylated GSK3beta to total GSK3beta, read-out: IC50 values for inhibition of SGK-1 dependent phosphorylation of GSK3beta in U2OS cells.

For test [4], the target named is recombinant human SGK-1 enzyme (Homo sapiens, UniProt O00141). As to the kind of experiment: Enzymatic activity assay: SGK-1 substrate peptide phosphorylation (Caliper lab-chip mobility shift). The class given is biochemical.
Chain of recombinant human SGK-1 enzyme (O00141 whole entry, looked up): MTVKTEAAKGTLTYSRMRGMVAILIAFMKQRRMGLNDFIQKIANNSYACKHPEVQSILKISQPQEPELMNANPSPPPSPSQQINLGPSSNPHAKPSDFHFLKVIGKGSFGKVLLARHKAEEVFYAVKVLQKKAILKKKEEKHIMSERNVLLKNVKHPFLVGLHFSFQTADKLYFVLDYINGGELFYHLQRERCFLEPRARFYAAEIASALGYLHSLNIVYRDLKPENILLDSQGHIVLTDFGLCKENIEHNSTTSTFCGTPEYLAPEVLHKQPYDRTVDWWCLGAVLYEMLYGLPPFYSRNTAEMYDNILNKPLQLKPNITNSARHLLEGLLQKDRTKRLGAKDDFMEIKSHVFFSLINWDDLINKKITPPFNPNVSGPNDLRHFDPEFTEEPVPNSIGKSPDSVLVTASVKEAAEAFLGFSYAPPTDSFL
Setting [5] is: Mus musculus, Chondrocyte, 336 h.
Where [6] appears, read: read-out: IC50 values for inhibition of SGK-1 enzymatic activity, peptide substrate 1 μM, ATP 10 μM, 60 min at 37° C.
The mark [7] stands for this setting: peptide substrate 1 μM, ATP 10 μM, 60 min at 37° C., read-out: IC50 values for inhibition of SGK-1 enzymatic activity.

Consider `O=S(=O)(Nc1ccc(-c2nc(OC3CCC(O)CC3)c3cn[nH]c3n2)cc1)c1cc(Cl)ccc1F` (stereo not shown) [Example 3, 5-Chloro-2-fluoro-N-{4-[4-(4-hydroxy-cyclohexyloxy)-1H-pyrazolo[3,4-d]pyrimidin-6-yl]-phenyl}-benzenesulfonamide], for which the IC50 was 3400 nM in test [1] (Xenopus laevis, INA-6, 0.75 h) and 52 nM in test [2] (setting [5]).
Regarding `Cc1ccc(C#N)c(S(=O)(=O)Nc2ccc(-c3nc(OC4CCC(O)CC4)c4cn[nH]c4n3)cc2)c1` (stereo not shown) [Example 4, 2-Cyano-N-{4-[4-(4-hydroxy-cyclohexyloxy)-1H-pyrazolo[3,4-d]pyrimidin-6-yl]-phenyl}-5-methyl-benzenesulfonamide], the IC50 is 3200 nM in test [1] (Xenopus laevis, INA-6, 0.75 h); 110 nM in test [3] (Homo sapiens); less than 1.5 nM in test [4] (setting [6]); 9 nM in test [2] (setting [5]).
For `COc1ccc(C#N)c(S(=O)(=O)Nc2ccc(-c3nc(C4CC4)c4c(N)n[nH]c4n3)cc2)c1` [Example 520], the IC50 in test [1] was 500 nM; in test [3], 61 nM; in test [4] (setting [7]), less than 1.5 nM; in test [2], 30 nM.
Consider `Nc1n[nH]c2cc(-c3ccc(NS(=O)(=O)c4cc(Cl)c(F)cc4F)cc3)ncc12` [Example 555], for which the IC50 was 600 nM in test [1], 3800 nM in test [3] and less than 1.5 nM in test [4] (setting [7]).
`Cc1ccc(C#N)c(S(=O)(=O)Nc2ccc(-c3nc(C)c4c(N)n[nH]c4n3)cc2)c1` [Example 468]: the IC50 is 610 nM in test [1], 230 nM in test [3], less than 1.5 nM in test [4] (setting [7]) and 870 nM in test [2].
`Cc1n[nH]c2nc(-c3ccc(NS(=O)(=O)c4cc(F)ccc4F)cc3)nc(OC3CCN(C(C)C)CC3)c12` [Example 349]: the IC50 in test [1] is 3200 nM; in test [4] (setting [7]), 8.4 nM; in test [2], 380 nM.
With `CC(C)COc1nc(-c2ccc(NS(=O)(=O)c3cc(Cl)ccc3Cl)cc2)nc2[nH]nc(N)c12` [Example 310], the figures for the IC50 in test [1], in test [3] and in test [4] (setting [7]) were 10000 nM, 220 nM and 130 nM, respectively.
Take `COc1ccc(Cl)c(S(=O)(=O)Nc2ccc(-c3ncc4c(N)n[nH]c4n3)cc2)c1` [Example 461]: the IC50 in test [1] is 180 nM; in test [3] it was 260 nM; in test [4] (setting [7]), less than 1.5 nM.
Turning to `N#Cc1ccc(Cl)cc1S(=O)(=O)Nc1ccc(-c2ncc3c(N)n[nH]c3n2)cc1` [Example 446, N-[4-(3-Amino-1H-pyrazolo[3,4-d]pyrimidin-6-yl)-phenyl]-5-chloro-2-cyano-benzenesulfonamide], the IC50 in test [1] (Xenopus laevis, INA-6, 0.75 h) is 190 nM; in test [3] (Homo sapiens) it was 3700 nM; in test [2] (setting [5]), 550 nM.
Turning to `O=S(=O)(Nc1ccc(-c2nc(OC3CCC(O)CC3)c3cn[nH]c3n2)cc1)c1cc(Cl)ccc1Cl` (stereo not shown) [Example 61], the IC50 in test [1] is 1400 nM; in test [3], 430 nM; in test [4] (setting [7]), less than 1.2 nM; in test [2], 36 nM.
In the case of `Cc1nc(-c2ccc(NS(=O)(=O)c3cc(Cl)c(F)cc3F)cc2)nc2[nH]nc(N)c12` [Example 447, N-[4-(3-Amino-4-methyl-1H-pyrazolo[3,4-d]pyrimidin-6-yl)-phenyl]-5-chloro-2,4-difluoro-benzenesulfonamide], the IC50 was 60 nM in test [1] (Xenopus laevis, INA-6, 0.75 h); 340 nM in test [3] (Homo sapiens); less than 1.5 nM in test [4] (setting [6]); 330 nM in test [2] (setting [5]).
Regarding `Cc1ccc(F)c(S(=O)(=O)Nc2ccc(-c3nc(OCC(C)C)c4c(N)n[nH]c4n3)cc2)c1` [Example 317], the half-maximal inhibitory concentration (IC50) in test [1] came out at 10000 nM; in test [3], 210 nM; in test [4] (setting [7]) it was 11 nM.
For `Cc1n[nH]c2nc(-c3ccc(NS(=O)(=O)c4cc(Cl)ccc4F)cc3)nc(OC3CCN(C(C)C)CC3)c12` [Example 346], the figures for the IC50 in test [1], in test [4] (setting [7]) and in test [2] were 2000 nM, 3.2 nM and 66 nM, respectively.
For the compound `Cc1nc(-c2ccc(NS(=O)(=O)c3cc(Cl)ccc3C#N)cc2)nc2[nH]ncc12` [Example 492], the IC50 came to 1100 nM in test [1], 4200 nM in test [3], 3.8 nM in test [4] (setting [7]) and 660 nM in test [2].
On to `N#Cc1ccc(Cl)cc1S(=O)(=O)Nc1ccc(-c2nc(OC3CCC(O)CC3)c3cn[nH]c3n2)cc1` (stereo not shown) [Example 83], for which the IC50 worked out at 1900 nM in test [1], 2100 nM in test [3], 2 nM in test [4] (setting [7]) and 130 nM in test [2].
For the compound `COc1ccc(Cl)c(S(=O)(=O)Nc2ccc(-c3nc(C)c4c(N)n[nH]c4n3)cc2)c1` [Example 467], the IC50 in test [1] is 160 nM; in test [3], 150 nM; in test [4] (setting [7]) it was less than 1.5 nM; in test [2] it was 53 nM.
With `Nc1n[nH]c2cc(-c3ccc(NS(=O)(=O)c4cc(Cl)ccc4Cl)cc3)ncc12` [Example 556], the results for the IC50 in test [1], in test [3] and in test [4] (setting [7]) were 2000 nM, 1700 nM and 1.7 nM, respectively.

As usually defined, the IC50 is the concentration needed to halve the response being measured.
